For this assay, the target named is T1, F508del (Homo sapiens, UniProt P13569, DEL508-508).
T1 construct: expressed in transfected cells
Description: Protocol 1: membrane potential optical assay (FLIPR III, voltage sensing dye), identification of potentiator compounds. In kind it is cell-based. The following applies: Table 3, compounds of Table 1. In short, it runs like this: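 Membrane potential in forskolin-activated, temperature-rescued F508del NIH 3T3 cells is followed with a voltage-sensing dye on FLIPR III. A chloride ion gradient created at the single addition step provides the driving force, after prior compound treatment.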

The source of these data is patent publication US10758534B2 (Vertex Pharmaceuticals Incorporated, priority 2014, dated 2020).

T1 sequence (P13569 with tags, fused parts or gaps DEL508-508): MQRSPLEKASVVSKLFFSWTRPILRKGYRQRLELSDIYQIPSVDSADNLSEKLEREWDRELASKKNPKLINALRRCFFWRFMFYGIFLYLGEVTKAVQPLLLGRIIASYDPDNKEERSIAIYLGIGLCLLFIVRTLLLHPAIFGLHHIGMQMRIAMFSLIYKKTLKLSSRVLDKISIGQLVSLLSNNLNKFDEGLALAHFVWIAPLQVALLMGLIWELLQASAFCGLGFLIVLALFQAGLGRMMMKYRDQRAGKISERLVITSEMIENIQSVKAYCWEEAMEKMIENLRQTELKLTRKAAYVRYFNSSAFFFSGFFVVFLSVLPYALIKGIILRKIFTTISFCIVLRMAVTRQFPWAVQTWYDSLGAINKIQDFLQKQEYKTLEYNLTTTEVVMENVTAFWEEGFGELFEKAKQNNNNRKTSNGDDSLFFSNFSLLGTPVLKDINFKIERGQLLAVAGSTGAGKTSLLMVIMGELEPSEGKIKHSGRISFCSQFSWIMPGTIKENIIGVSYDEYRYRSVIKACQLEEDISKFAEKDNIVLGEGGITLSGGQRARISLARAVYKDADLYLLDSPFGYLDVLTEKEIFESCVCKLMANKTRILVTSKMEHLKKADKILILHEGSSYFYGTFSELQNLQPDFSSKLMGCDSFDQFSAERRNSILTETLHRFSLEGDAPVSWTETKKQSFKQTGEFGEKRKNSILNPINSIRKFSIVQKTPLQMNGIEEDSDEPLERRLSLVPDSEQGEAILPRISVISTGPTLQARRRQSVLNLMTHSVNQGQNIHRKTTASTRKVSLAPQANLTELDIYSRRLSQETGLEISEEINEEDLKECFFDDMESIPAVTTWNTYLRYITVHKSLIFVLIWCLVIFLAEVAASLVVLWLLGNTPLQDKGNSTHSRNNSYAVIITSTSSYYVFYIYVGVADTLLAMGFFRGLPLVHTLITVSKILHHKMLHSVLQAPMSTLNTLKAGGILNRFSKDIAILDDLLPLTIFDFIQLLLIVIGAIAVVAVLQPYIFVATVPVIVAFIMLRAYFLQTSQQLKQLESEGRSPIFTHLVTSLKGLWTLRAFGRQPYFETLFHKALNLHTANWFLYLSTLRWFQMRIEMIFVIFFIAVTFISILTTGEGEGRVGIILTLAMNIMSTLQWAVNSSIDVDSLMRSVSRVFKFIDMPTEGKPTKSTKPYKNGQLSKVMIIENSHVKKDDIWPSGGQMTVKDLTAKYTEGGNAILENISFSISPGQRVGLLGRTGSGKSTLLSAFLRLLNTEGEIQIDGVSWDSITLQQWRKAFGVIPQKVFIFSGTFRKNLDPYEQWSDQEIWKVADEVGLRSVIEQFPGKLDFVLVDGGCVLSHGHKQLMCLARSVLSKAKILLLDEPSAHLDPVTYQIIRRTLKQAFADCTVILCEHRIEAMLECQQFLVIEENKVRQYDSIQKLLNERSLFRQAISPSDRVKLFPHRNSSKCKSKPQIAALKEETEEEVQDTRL

In the case of `Cc1cn(-c2ccc(C(=O)NS(=O)(=O)c3ccc[nH]c3=O)c(N3C[C@@H](C)CC3(C)C)n2)nc1OCC(C)C` [Compound 1743, 6-(3-isobutoxy-4-methyl-pyrazol-1-yl)-N-[(2-oxo-1H-pyridin-3-yl)sulfonyl]-2-[(4S)-2,2,4-trimethylpyrrolidin-1-yl]pyridine-3-carboxamide], the EC30 entry is given as “+++ (“+++” means <3 uM)”.

`Cc1cc(C)c(Cn2nc(C(C)(C)C)cc2C(=O)NS(=O)(=O)c2cn(C)cn2)c(C)c1` [Compound 1568, 5-tert-butyl-N-(1-methylimidazol-4-yl)sulfonyl-2-[(2,4,6-trimethylphenyl)methyl]pyrazole-3-carboxamide]: the EC30 result is on record as “+++ (“+++” means <3 uM)”.

Regarding `COc1nccc2c1cc(C(=O)NS(=O)(=O)c1cccc(N)c1)n2Cc1c(C)cc(C)cc1C` [Compound 943, N-(3-aminophenyl)sulfonyl-4-methoxy-1-[(2,4,6-trimethylphenyl)methyl]pyrrolo[3,2-c]pyridine-2-carboxamide], the EC30 result is given as “+ (“+” means greater than 10 uM)”.

For the compound `C[C@@H]1CN(c2nc3c(cc2C(=O)NS(=O)(=O)c2cccc(N)n2)CCC3)C(C)(C)C1` [Compound 1386, N-[(6-amino-2-pyridyl)sulfonyl]-2-[(4S)-2,2,4-trimethylpyrrolidin-1-yl]-6,7-dihydro-5H-cyclopenta[b]pyridine-3-carboxamide], the EC30 entry is “++ (“++” means between 3 uM and 10 uM)”.

In the case of `COc1ccc(/C=C/c2cnc(N3CC(C)CC3(C)C)c(C(=O)NS(=O)(=O)c3cccc(N)n3)c2)cc1` (centres unmarked) [Compound 1726, N-[(6-amino-2-pyridyl)sulfonyl]-5-[(E)-2-(4-methoxyphenyl)vinyl]-2-(2,2,4-trimethylpyrrolidin-1-yl)pyridine-3-carboxamide], the EC30 entry is on record as “+++ (“+++” means <3 uM)”.

With `Cc1ccccc1Oc1nc(C(C)(C)C)ccc1C(=O)NS(=O)(=O)c1cccc(N)n1` [Compound 1318, N-[(6-amino-2-pyridyl)sulfonyl]-6-tert-butyl-2-(2-methylphenoxy)pyridine-3-carboxamide], the EC30 result is reported as “+++ (“+++” means <3 uM)”.

As for `COC[C@H]1CCCN1c1nc(-c2cc(F)cc(OCC(C)C)c2)ccc1C(=O)NS(=O)(=O)c1cccc(N)n1` [Compound 1149, N-[(6-amino-2-pyridyl)sulfonyl]-6-(3-fluoro-5-isobutoxy-phenyl)-2-[(2R)-2-(methoxymethyl)pyrrolidin-1-yl]pyridine-3-carboxamide], the EC30 result is recorded as “+++ (“+++” means <3 uM)”.

In the case of `CCOc1cc(F)ccc1-c1ccc(C(=O)NS(=O)(=O)c2cccnc2N)c(N2C[C@@H](C)CC2(C)C)n1` [Compound 1808, N-[(2-amino-3-pyridyl)sulfonyl]-6-(2-ethoxy-4-fluoro-phenyl)-2-[(4S)-2,2,4-trimethylpyrrolidin-1-yl]pyridine-3-carboxamide], the EC30 entry is “+++ (“+++” means <3 uM)”.

Regarding `CC(C)COc1cc(F)cc(-c2ccc(C(=O)NS(=O)(=O)N3CCC[C@H](N)C3)c(N3C[C@@H](C)CC3(C)C)n2)c1` [Compound 1435, N—[[(3S)-3-amino-1-piperidyl]sulfonyl]-6-(3-fluoro-5-isobutoxy-phenyl)-2-[(4S)-2,2,4-trimethylpyrrolidin-1-yl]pyridine-3-carboxamide], the EC30 entry is “+++ (“+++” means <3 uM)”.

With `C[C@@H]1CN(c2nc(-c3cc(F)cc(OCC(C)(C)O)c3)ccc2C(=O)NS(=O)(=O)c2cccc(N)n2)C(C)(C)C1` [Compound 1424, N-[(6-amino-2-pyridyl)sulfonyl]-6-[3-fluoro-5-(2-hydroxy-2-methyl-propoxy)phenyl]-2-[(4S)-2,2,4-trimethylpyrrolidin-1-yl]pyridine-3-carboxamide], the EC30 entry is “+++ (“+++” means <3 uM)”.

For `COc1ccc(CN(C)c2cccc(S(=O)(=O)NC(=O)c3cccnc3N3CC(C)CC3(C)C)n2)cc1` (centres unmarked) [Compound 1717, N—[[6-[(4-methoxyphenyl)methyl-methyl-amino]-2-pyridyl]sulfonyl]-2-(2,2,4-trimethylpyrrolidin-1-yl)pyridine-3-carboxamide], the EC30 entry is reported as “+++ (“+++” means <3 uM)”.

For the compound `C[C@@H]1CN(c2nc(-c3ccc(F)cc3F)ccc2C(=O)NS(=O)(=O)N2CC[C@H](N)C2)C(C)(C)C1` [Compound 1947, N-[(3S)-3-aminopyrrolidin-1-yl]sulfonyl-6-(2,4-difluorophenyl)-2-[(4S)-2,2,4-trimethylpyrrolidin-1-yl]pyridine-3-carboxamide], the EC30 result is “++ (“++” means between 3 uM and 10 uM)”.

For `CC(C)Oc1ccc(-c2ccc(C(=O)NS(=O)(=O)c3ccc(O)c(N)n3)c(N3[C@H](C)CC[C@@H]3C)n2)cn1` [Compound 1375, N-[(6-amino-5-hydroxy-2-pyridyl)sulfonyl]-2-[(2S,5R)-2,5-dimethylpyrrolidin-1-yl]-6-(6-isopropoxy-3-pyridyl)pyridine-3-carboxamide], the EC30 result is “++ (“++” means between 3 uM and 10 uM)”.

On to `CC1CN(c2ncccc2C(=O)NS(=O)(=O)c2cccc(NCc3ccc(Cl)cc3Cl)n2)C(C)(C)C1` (centres unmarked) [Compound 1968, N—[[6-[(2,4-dichlorophenyl)methylamino]-2-pyridyl]sulfonyl]-2-(2,2,4-trimethylpyrrolidin-1-yl)pyridine-3-carboxamide], for which the EC30 entry is reported as “+++ (“+++” means <3 uM)”.

As to `C[C@@H]1CN(c2nc(C3=CCCN(C(=O)c4cccc(Cl)c4)C3)ccc2C(=O)NS(=O)(=O)c2cccc(N)n2)C(C)(C)C1` [Compound 1984, N-[(6-amino-2-pyridyl)sulfonyl]-6-[1-(3-chlorobenzoyl)-3,6-dihydro-2H-pyridin-5-yl]-2-[(4S)-2,2,4-trimethylpyrrolidin-1-yl]pyridine-3-carboxamide], the EC30 entry is “++ (“++” means between 3 uM and 10 uM)”.

`CCCCOc1ccc(-c2ccc(C(=O)NS(=O)(=O)c3ccc[nH]c3=O)c(Oc3c(C)cc(C)cc3C)n2)cc1F` [Compound 1187, 6-(4-butoxy-3-fluoro-phenyl)-N-[(2-oxo-1H-pyridin-3-yl)sulfonyl]-2-(2,4,6-trimethylphenoxy)pyridine-3-carboxamide]: the EC30 result is on record as “+++ (“+++” means <3 uM)”.

On to `CC(C)COc1cncc(-c2ccc(C(=O)NS(=O)(=O)c3cccc(N)n3)c(N3C[C@@H](C)CC3(C)C)n2)n1` [Compound 1523, N-[(6-amino-2-pyridyl)sulfonyl]-6-(6-isobutoxypyrazin-2-yl)-2-[(4S)-2,2,4-trimethylpyrrolidin-1-yl]pyridine-3-carboxamide], for which the EC30 result was “+++ (“+++” means <3 uM)”.

In the case of `CCN(CCOC)c1cccc(S(=O)(=O)NC(=O)c2cccnc2N2CC(C)CC2(C)C)n1` (centres unmarked) [Compound 1870, N—[[6-[ethyl(2-methoxyethyl)amino]-2-pyridyl]sulfonyl]-2-(2,2,4-trimethylpyrrolidin-1-yl)pyridine-3-carboxamide], the EC30 entry was “++ (“++” means between 3 uM and 10 uM)”.

With `Cc1cc(C)c(Oc2nc(C3=CCCCC3)ccc2C(=O)NS(=O)(=O)c2ccc[nH]c2=O)c(C)c1` [Compound 882, 6-(cyclohexen-1-yl)-N-[(2-oxo-1H-pyridin-3-yl)sulfonyl]-2-(2,4,6-trimethylphenoxy)pyridine-3-carboxamide], the EC30 entry is “+++ (“+++” means <3 uM)”.

For the compound `Cc1cc(C)c(Oc2nc(C(C)(C)C)ccc2C(=O)NS(=O)(=O)c2cccc(NCCN(C)C)n2)c(C)c1` [Compound 947, 6-tert-butyl-N-[[6-(2-dimethylaminoethylamino)-2-pyridyl]sulfonyl]-2-(2,4,6-trimethylphenoxy)pyridine-3-carboxamide], the EC30 result was “+++ (“+++” means <3 uM)”.

With `Cc1cccc(C)c1Oc1nc(-c2cc(F)cc(OCC(C)(C)O)c2)ccc1C(=O)NS(=O)(=O)c1cccc(N)n1` [Compound 1890, N-[(6-amino-2-pyridyl)sulfonyl]-2-(2,6-dimethylphenoxy)-6-[3-fluoro-5-(2-hydroxy-2-methyl-propoxy)phenyl]pyridine-3-carboxamide], the EC30 result was “++ (“++” means between 3 uM and 10 uM)”.

Consider `CC(C)COc1cc(F)cc(-c2ccc(C(=O)NS(=O)(=O)c3cccc(N)n3)c(N3CC4CCCC4C3)n2)c1` (centres unmarked) [Compound 857, 2-(3,3a,4,5,6,6a-hexahydro-1H-cyclopenta[c]pyrrol-2-yl)-N-[(6-amino-2-pyridyl)sulfonyl]-6-(3-fluoro-5-isobutoxy-phenyl)pyridine-3-carboxamide], for which the EC30 entry is on record as “+++ (“+++” means <3 uM)”.

Take `Cc1cc(C)c(Oc2nc(-c3cc(F)cc(OC(C)C)c3)ccc2C(=O)NS(=O)(=O)c2nccnc2N)c(C)c1` [Compound 989, N-(3-aminopyrazin-2-yl)sulfonyl-6-(3-fluoro-5-isopropoxy-phenyl)-2-(2,4,6-trimethylphenoxy)pyridine-3-carboxamide]: the EC30 result is on record as “+++ (“+++” means <3 uM)”.

For the compound `CC(C)COc1cc(F)cc(-c2ccc(C(=O)NS(=O)(=O)N3CCC(O)C3)c(N3C[C@@H](C)CC3(C)C)n2)c1` (stereo partly drawn) [Compound 1648, 6-(3-fluoro-5-isobutoxy-phenyl)-N-(3-hydroxypyrrolidin-1-yl)sulfonyl-2-[(4S)-2,2,4-trimethylpyrrolidin-1-yl]pyridine-3-carboxamide], the EC30 result is reported as “+++ (“+++” means <3 uM)”.

With `C[C@@H]1CN(c2nc(-c3ccc(OCC(C)(C)C)nc3)ccc2C(=O)NS(=O)(=O)c2cccc(N)n2)C(C)(C)C1` [Compound 1504, N-[(6-amino-2-pyridyl)sulfonyl]-6-[6-(2,2-dimethylpropoxy)-3-pyridyl]-2-[(4S)-2,2,4-trimethylpyrrolidin-1-yl]pyridine-3-carboxamide], the EC30 result was “+++ (“+++” means <3 uM)”.

On to `Cc1cc(C)c(Oc2nc(-c3ccccc3Cl)ccc2C(=O)NS(=O)(=O)c2cccc(N)n2)c(C)c1` [Compound 1221, N-[(6-amino-2-pyridyl)sulfonyl]-6-(2-chlorophenyl)-2-(2,4,6-trimethylphenoxy)pyridine-3-carboxamide], for which the EC30 entry is “+++ (“+++” means <3 uM)”.
